Results on 64 compounds are retold here after patent US20050222173A1, “Triazolopyrimidines” (priority 2002, published 2005).

For orientation: chromatographic logP means lipophilicity estimated from chromatographic retention.

System in the first data set: not listed separately
In words: logP determination by HPLC (EEC Directive 79/831 Annex V. A8). Particulars: HPLC, gradient method, acetonitrile/0.1% aqueous phosphoric acid.
On to `CC(C)Nc1c(-c2ccc(F)cc2F)c(Cl)nc2nc(Cl)nn12` [Example 95], for which the log.P was determined as 3.31.

For the compound `CCCNc1c(-c2c(F)cc(F)cc2F)c(Cl)nc2nc(Cl)nn12` [Example 10], the log.P amounted to 3.37.

`Fc1cc(F)c(-c2c(Cl)nc3nc(Cl)nn3c2NC2CCCC2)c(F)c1` [Example 11] yielded a log.P of 3.9.

For `CC(C)C(C)Nc1c(-c2ccc(F)cc2F)c(Cl)nc2nc(Cl)nn12` (stereo not shown) [Example 173], the log.P is listed as 3.96.

The compound `Fc1cc(F)c(-c2c(Cl)nc3nc(Br)nn3c2N2CCSCC2)c(F)c1` [Example 61] returned a log.P of 3.72.

In turn, `C=C(C)CNc1c(-c2c(F)cc(F)cc2F)c(Cl)nc2nc(Cl)nn12` [Example 86] had a log.P of 3.37.

Consider `CC(C)(Nc1c(-c2c(F)cc(F)cc2F)c(Cl)nc2nc(Cl)nn12)C(F)(F)F` [Example 66], for which the log.P was found to be 3.28.

Regarding `CCN(CCOC)c1c(-c2ccc(F)cc2F)c(Cl)nc2nc(Cl)nn12` [Example 122], the log.P was determined as 3.51.

Compound `CCC(C)CNc1c(-c2c(F)cc(F)cc2F)c(Cl)nc2nc(Br)nn12` (stereo not shown) [Example 73] returned a log.P of 4.05.

The compound `CCN(CCN(C)C)c1c(-c2ccc(F)cc2F)c(Cl)nc2nc(Cl)nn12` [Example 117] yielded a log.P of 1.65.

Consider `Clc1nc2nc(Cl)c(-c3ccccc3Cl)c(N3CCCCC3)n2n1` [Example 32], for which the log.P came to 4.18.

In the case of `CN(C)c1c(-c2c(F)cc(F)cc2F)c(Cl)nc2nc(Br)nn12` [Example 59], the log.P came to 3.14.

In turn, `COCCN(C)c1c(-c2ccc(F)cc2F)c(Cl)nc2nc(Cl)nn12` [Example 115] registered a log.P of 3.2.

The compound `CC(C)C(C)Nc1c(-c2ccccc2Cl)c(Cl)nc2nc(Cl)nn12` (stereo not shown) [Example 175] gave a log.P of 4.16.

As to `CN(Cc1ccco1)c1c(-c2ccc(F)cc2F)c(Cl)nc2nc(Cl)nn12` [Example 113], the log.P is recorded as 3.69.

With `CC(C)(C)Nc1c(-c2c(F)cc(F)cc2F)c(Cl)nc2nc(Cl)nn12` [Example 25], the log.P amounted to 3.9.

`CCC(C)Nc1c(-c2c(F)cc(F)cc2F)c(Cl)nc2nc(Br)nn12` (stereo not shown) [Example 64] displayed a log.P of 3.76.

Turning to `Fc1cc(F)c(-c2c(Cl)nc3nc(Cl)nn3c2N2CCC(F)CC2)c(F)c1` [Example 83], the log.P is reported as 3.55.

With `CCN(CCOC)c1c(-c2c(F)cc(F)cc2F)c(Cl)nc2nc(Br)nn12` [Example 75], the log.P worked out at 3.62.

`CCN(CCOC)c1c(-c2c(F)cc(F)cc2F)c(Cl)nc2nc(Cl)nn12` [Example 77] gave a log.P of 3.61.

Regarding `Clc1nc2nc(Cl)c(-c3ccccc3Cl)c(N3CCCC3)n2n1` [Example 30], the log.P turned out to be 3.59.

In turn, `Fc1cccc(Cl)c1-c1c(Cl)nc2nc(Cl)nn2c1NCC1CC1` [Example 143] showed a log.P of 3.49.

Turning to `COCCNc1c(-c2c(F)cc(F)cc2F)c(Cl)nc2nc(Cl)nn12` [Example 12], the log.P is 2.91.

`CC(C)CN(C)c1c(-c2ccc(F)cc2F)c(Cl)nc2nc(Cl)nn12` [Example 114] showed a log.P of 4.08.

Compound `C[C@H](Nc1c(-c2c(F)cccc2Cl)c(Cl)nc2nc(Cl)nn12)C(F)(F)F` [Example 100] gave a log.P of 3.6.

A further data set relates to Podosphaera leucotricha. In words: Podosphaera test (apple)/protective. It is filed as in vivo. The following applies: Podosphaera leucotricha, 240 h, protective, application rate 100 g/ha, evaluation 10 days after inoculation, read-out: Efficacy in %. On the procedure: Podosphaera Test (Apple)/Protective [table] […] To test for protective activity, young plants are sprayed with the preparation of active compound at the stated application rate. After the spray coating has dried on, the plants are inoculated with an aqueous spore suspension of the apple mildew pathogen Podosphaera leucotricha. The plants are then placed in a greenhouse at about 23° C. and a relative atmospheric humidity of about 70%.
In the case of `C[C@H](Nc1c(-c2c(F)cccc2Cl)c(Cl)nc2nc(Cl)nn12)C(F)(F)F` [drawing 41], the pest or weed control at 100 g/ha is 100%.

On to `C[C@@H](Nc1c(-c2c(F)cc(F)cc2F)c(Cl)nc2nc(Cl)nn12)C(F)(F)F` [drawing 33], for which the pest or weed control at 100 g/ha stood at 100%.

Regarding `Fc1cccc(Cl)c1-c1c(Cl)nc2nc(Cl)nn2c1N1CCCC1` [drawing 43], the pest or weed control at 100 g/ha worked out at 93%.

With `CC(C)CNc1c(-c2c(F)cccc2Cl)c(Cl)nc2nc(Cl)nn12` [drawing 45], the pest or weed control at 100 g/ha was 100%.

Turning to `Fc1cccc(Cl)c1-c1c(Cl)nc2nc(Cl)nn2c1NCC1CC1` [drawing 46], the pest or weed control at 100 g/ha was 100%.

Regarding `C=CCN(CC)c1c(-c2c(F)cccc2Cl)c(Cl)nc2nc(Cl)nn12` [drawing 44], the pest or weed control at 100 g/ha came out at 95%.

For `COCCN(C)c1c(-c2c(F)cccc2Cl)c(Cl)nc2nc(Cl)nn12` [drawing 47], the pest or weed control at 100 g/ha came to 100%.

As to `C[C@H](Nc1c(-c2c(F)cc(F)cc2F)c(Cl)nc2nc(Br)nn12)C(F)(F)F` [drawing 38], the pest or weed control at 100 g/ha turned out to be 100%.

For the compound `Clc1nc2nc(Cl)c(-c3ccccc3Cl)c(NCC3CC3)n2n1` [drawing 37], the pest or weed control at 100 g/ha amounted to 97%.

With `C[C@@H](Nc1c(-c2ccccc2Cl)c(Cl)nc2nc(Cl)nn12)C(F)(F)F` [drawing 32], the pest or weed control at 100 g/ha came to 100%.

On to `Fc1ccc(-c2c(Cl)nc3nc(Cl)nn3c2N[C@@H](Cl)C(F)(F)F)c(F)c1` [drawing 42], for which the pest or weed control at 100 g/ha amounted to 100%.

On to `COc1nc2nc(Cl)c(-c3c(F)cc(F)cc3OC)c(NC(C)C(F)(F)F)n2n1` (stereo not shown) [drawing 49], for which the pest or weed control at 100 g/ha is 83%.

As for `CCC(C)CNc1c(-c2c(F)cc(F)cc2F)c(Cl)nc2nc(Br)nn12` (stereo not shown) [drawing 36], the pest or weed control at 100 g/ha worked out at 94%.

`CCC(C)CNc1c(-c2c(F)cc(F)cc2F)c(Cl)nc2nc(Cl)nn12` (stereo not shown) [drawing 35]: the pest or weed control at 100 g/ha worked out at 100%.

`CC(C)CNc1c(-c2ccc(F)cc2F)c(Cl)nc2nc(Cl)nn12` [drawing 40]: the pest or weed control at 100 g/ha was 100%.

Turning to `CC(C)Nc1c(-c2ccccc2Cl)c(Cl)nc2nc(Br)nn12` [drawing 34], the pest or weed control at 100 g/ha was 87%.

The data set is the same for the next values; noted with them: Podosphaera leucotricha, 240 h, protective, application rate 199 g/ha, evaluation 10 days after inoculation, read-out: Efficacy in %.
Consider `CC1CCCN(c2c(-c3c(F)cc(F)cc3F)c(Cl)nc3nc(Cl)nn23)C1` (stereo not shown) [drawing 39], for which the pest or weed control at 199 g/ha was determined as 94%.

Still in this data set, the particulars now being: protective, application rate 100 g/ha, evaluation 10 days after inoculation.
Regarding `C=C(C)CN(C)c1c(-c2c(F)cccc2Cl)c(Cl)nc2nc(Cl)nn12` [drawing 48], the Efficacy in % stood at 100%.

System in the next data set: not listed separately
Description: physchem.
Details: not given
Regarding `Fc1cc(F)c(-c2c(Cl)nc3nc(Br)nn3c2Cl)c(F)c1` [Example 180, 2-Bromo-5,7-dichloro-6-(2,4,6-trifluorophenyl)[1,2,4]triazolo[1,5-a]pyrimidine], the chromatographic logP was 3.27.

Consider `Clc1nc2nc(Cl)c(-c3ccccc3Cl)c(Cl)n2n1` [Example 177, 2,5,7-trichloro-6-(2-chlorophenyl)[1,2,4]triazolo[1,5-a]pyrimidine], for which the chromatographic logP stood at 3.37. The chromatographic logP values of the last two compounds are within 0.2 log units of each other.

Consider `Clc1ccccc1-c1c(Cl)nc2nc(Br)nn2c1Cl` [Example 178, 2-Bromo-5,7-dichloro-6-(2-chlorophenyl)[1,2,4]triazolo[1,5-a]pyrimidine], for which the chromatographic logP was determined as 3.39.

The next data set concerns Venturia inaequalis. Description: Venturia test (apple)/protective. It is filed as in vivo. Particulars: Venturia inaequalis, 240 h, protective, application rate 100 g/ha, evaluation 10 days after inoculation, read-out: Efficacy in %. On the procedure:
Venturia Test (Apple)/Protective [table] To produce a suitable preparation of active compound, 1 part by weight of active compound is mixed with the stated amounts of solvent and emulsifier, and the concentrate is diluted with water to the desired concentration. To test for protective activity, young plants are sprayed with the preparation of active compound at the stated application rate. […] The plants are then placed in a greenhouse at about 21° C. and a relative atmospheric humidity of about […].
Consider `C=CCN(CC)c1c(-c2c(F)cccc2Cl)c(Cl)nc2nc(Cl)nn12` [drawing 62], for which the pest or weed control at 100 g/ha stood at 96%.

With `Fc1cccc(Cl)c1-c1c(Cl)nc2nc(Cl)nn2c1N1CCCC1` [drawing 61], the pest or weed control at 100 g/ha is 85%.

Consider `CC(C)Nc1c(-c2ccccc2Cl)c(Cl)nc2nc(Br)nn12` [drawing 52], for which the pest or weed control at 100 g/ha was found to be 98%.

With `CCC(C)CNc1c(-c2c(F)cc(F)cc2F)c(Cl)nc2nc(Cl)nn12` (stereo not shown) [drawing 53], the pest or weed control at 100 g/ha worked out at 83%.

Consider `CCC(C)CNc1c(-c2c(F)cc(F)cc2F)c(Cl)nc2nc(Br)nn12` (stereo not shown) [drawing 54], for which the pest or weed control at 100 g/ha is 80%.

In the case of `Clc1nc2nc(Cl)c(-c3ccccc3Cl)c(NCC3CC3)n2n1` [drawing 55], the pest or weed control at 100 g/ha amounted to 96%.

Regarding `C[C@H](Nc1c(-c2c(F)cccc2Cl)c(Cl)nc2nc(Cl)nn12)C(F)(F)F` [drawing 59], the pest or weed control at 100 g/ha is 100%.

As for `C[C@@H](Nc1c(-c2c(F)cc(F)cc2F)c(Cl)nc2nc(Cl)nn12)C(F)(F)F` [drawing 51], the pest or weed control at 100 g/ha amounted to 100%.

Take `CC(C)CNc1c(-c2ccc(F)cc2F)c(Cl)nc2nc(Cl)nn12` [drawing 58]: the pest or weed control at 100 g/ha is 85%.

As to `COc1nc2nc(Cl)c(-c3c(F)cc(F)cc3OC)c(NC(C)C(F)(F)F)n2n1` (stereo not shown) [drawing 67], the pest or weed control at 100 g/ha is 99%.

On to `CC(C)CNc1c(-c2c(F)cccc2Cl)c(Cl)nc2nc(Cl)nn12` [drawing 63], for which the pest or weed control at 100 g/ha was 91%.

As to `C[C@H](Nc1c(-c2c(F)cc(F)cc2F)c(Cl)nc2nc(Br)nn12)C(F)(F)F` [drawing 56], the pest or weed control at 100 g/ha amounted to 99%.

As for `COCCN(C)c1c(-c2c(F)cccc2Cl)c(Cl)nc2nc(Cl)nn12` [drawing 65], the pest or weed control at 100 g/ha was found to be 96%.

For the compound `Fc1cccc(Cl)c1-c1c(Cl)nc2nc(Cl)nn2c1NCC1CC1` [drawing 64], the pest or weed control at 100 g/ha was 99%.

Turning to `Fc1ccc(-c2c(Cl)nc3nc(Cl)nn3c2N[C@@H](Cl)C(F)(F)F)c(F)c1` [drawing 60], the pest or weed control at 100 g/ha worked out at 100%.

In the case of `C[C@@H](Nc1c(-c2ccccc2Cl)c(Cl)nc2nc(Cl)nn12)C(F)(F)F` [drawing 50], the pest or weed control at 100 g/ha worked out at 100%.

For the compound `CC1CCCN(c2c(-c3c(F)cc(F)cc3F)c(Cl)nc3nc(Cl)nn23)C1` (stereo not shown) [drawing 57], the pest or weed control at 100 g/ha stood at 96%.

Still in this data set, the particulars now being: protective, application rate 100 g/ha, evaluation 10 days after inoculation.
Take `C=C(C)CN(C)c1c(-c2c(F)cccc2Cl)c(Cl)nc2nc(Cl)nn12` [drawing 66]: the Efficacy in % was determined as 84%.
